Results on 2 molecules are retold here after article PMC9884808, “Pharmacokinetics, tissue distribution, and antitumor activity of a novel compound, NY-2, in non-small cell lung cancer” (Frontiers in Pharmacology, 2023).

Data set [1] can be described thus: Pharmacokinetics in rats after tail vein injection. As to conditions: for Cmax / half-life / MRT last / AUC(0-inf) / AUC(0-t): male, Sprague-Dawley, plasma; for MRT last: read-out: MRT0-t; for AUC(0-inf) / AUC(0-t): 6 mg/kg. The class given is in vivo, Sprague-Dawley rats. The source says:
(§1) We used the online ADME prediction tool Swiss AMDE (http://www.swissadme.ch/index.php) (SwissADME, 2017) to analyze the physicochemical descriptors and ADME parameters of NY-2 and ZLDI-8, to predict their pharmacokinetic properties, drug-like nature, and medicinal chemistry. […] Male Sprague-Dawley rats weighing 240 ± 20 g were purchased from Liaoning Changsheng Biotechnology Co., Ltd. (Liaoning, China, animal license #SCXK-2015-0001). Rats were used for the tissue distribution and pharmacokinetics experiments because of their larger body fluid volume. The rats were fasted for 12 h before the experiment but allowed to drink water freely. Animals were anesthetized with 4% chloral hydrate (0.5 mL/100 g), the total blood volume was collected from the abdominal aorta and quickly dispensed into heparinized EP tubes prepared in advance. The rats were euthanized after blood collection was completed. Plasma samples were subjected to a protein precipitation method for the quantitative analysis of ZLDI-8 and NY-2 by LC-MS/MS (API 3200MD, AB Sciex, United States). The samples were injected into the ionization source by the auto-sampler. A series of standard solutions of ZLDI-8 were prepared with final concentrations of 20, 50, 100, 250, 500, 1000, and 1500 ng/mL; and NY-2 was prepared with final concentrations of 100, 200, 500, 800, 1200, 1600, and 2000 ng/mL. The linear equation and correlation coefficient (r) of the regression curve were calculated from these concentrations and the corresponding absorption data. The specificity, lower limit of quantification (LLOQ), linear range, precision, accuracy, matrix effects, extraction recovery, stability of analytes during the whole process of storage, as well as treatment in a biological matrix and solution were determined to verify the reliability of the compound concentrations in vivo.
The plasma concentration-time concentration data of ZLDI-8 and NY-2 at different times were fitted by DAS2.0 pharmacokinetics software and the drug-time curve was drawn. The drug-time curves of the two compounds were compared and simulated, and a two-compartment model was selected to calculate the pharmacokinetic parameters using the statistical moment algorithm. The peak value (Cmax), half-life (t1/2), area under the curve (AUC0-t and AUC0-∞), plasma clearance rate (CL), mean retention time (MRT), and other parameters of the test data were expressed as mean ± SD. Statistical analyses were performed using GraphPad Prism 5 (GraphPad Software, San Diego, CA, United States), and all experiments were repeated at least three times. […] The experimental results are presented as mean ± SD or mean ± SEM, and significant differences are defined as p ≤ .05.
Plasma samples obtained after the SD rat tail vein injection of ZLDI-8 and NY-2 were processed and analyzed by HPLC-MS/MS, and the measured peak areas of ZLDI-8 and NY-2 were compared with the internal standard peak areas. The accompanying standard curves were used to calculate the plasma drug concentrations of each rat at different time points from the measured values. The plasma concentration-time data of ZLDI-8 and NY-2 at different times were fitted by DAS2.0 pharmacokinetic software, and the pharmacokinetic outcomes of the two compounds were obtained according to the two-compartment model and the pharmacokinetic parameters are shown in Table 2. The average plasma concentration-time curve after intravenous injection of 6 mg/kg compound ZLDI-8 and NY-2 was obtained by plotting the plasma concentrations against time.

The nature of data set [2]: Tissue distribution in rats. The class given is in vivo, SD rats. As to conditions: for blood-brain barrier penetration: rat brain tissue concentration very low; for order of concentrations in tissues: 5 min after administration. How it is done: After fasting for 12 h, 32 SD rats were randomly divided into eight groups of four rats each. Four groups were injected with ZLDI-8 via tail vein (6 mg/kg) at 5 min, 12, 24, and 48 h. The other four groups were injected with NY-2 (6 mg/kg) at the same time points. The heart, liver, spleen, lung, kidney, brain, muscle, and intestines were collected after cervical dislocation at the specified time points and tissue samples were removed. Samples were rinsed with normal saline at 0°C to remove residual blood and debris, blotted dry with filter paper, weighed, and stored at ˗20°C until used.

The nature of data set [3]: Stability of plasma samples (LC-MS/MS method validation). The class given is in vitro ADME, rat. To be noted: room temperature 12 h, auto-sampler 4°C 3 days, -20°C 14 days, three freeze-thaw cycles.
From the text: as §1, with “Animals were anesthetized with 4% chloral hydrate (0.5 mL/100 g), the total blood volume was collected from the abdominal aorta and quickly dispensed into heparinized EP tubes prepared in advance. The rats were euthanized after blood collection was completed.” left out, “The samples were injected into the ionization source by the auto-sampler. A series of standard solutions of ZLDI-8 were prepared with final concentrations of 20, 50, 100, 250, 500, 1000, and 1500 ng/mL; and NY-2 was prepared with final concentrations of 100, 200, 500, 800, 1200, 1600, and 2000 ng/mL.” left out, “vivo. […]” for “vivo.”

The mark [4] stands for this setting: intravenous, rat, tail vein injection 6 mg/kg, mean ± SD, n = 6.
[5] abbreviates: iv, rat, tail vein injection 6 mg/kg, mean ± SD, n = 6.
The mark [6] stands for this setting: rat, iv, intravenous injection 6 mg/kg.
[7] abbreviates: rat, iv, tail vein injection 6 mg/kg, mean ± SD, n = 6.

With `Cc1ccc(OCCn2c(C)c(C=C3C(=O)NC(=S)NC3=O)c3ccccc32)c(C)c1` [ZLDI-8, reference compound], the Cmax (in general, the highest concentration seen after dosing) in data set [1] (setting [4]) was 337 ng/mL. In data set [1] (setting [5]), the Cmax worked out at 337 ± 19.4 ng/mL; the half-life (in general, the time needed for the level to fall by half in the phase considered) was 35.4 ± 15.6 min; the MRT last is 18.6 ± 1.2 min. In data set [1] (setting [6]), the AUC(0-inf) (usually the area under the concentration-time curve extrapolated to infinity) was 85.2 ng·h/mL and the AUC(0-t) (usually the area under the concentration-time curve up to a stated or last time point) was 58.8 ng·h/mL. In data set [1] (setting [7]), the AUC(0-inf) came to 85.2 ± 26.3 ng·h/mL and the AUC(0-t) was 58.8 ± 4.62 ng·h/mL. For the same molecule, the blood-brain barrier penetration result in data set [2] is “do not readily penetrate the blood-brain barrier”. In data set [2] (rat, tail vein 6 mg/kg), the “concentration in the brain” value is “almost zero” and the “order of concentrations in tissues” value was “lung > liver > spleen > heart > kidney > intestines > brain > muscle”. In addition, in data set [3], the “stability of plasma samples” value was “stable under a variety of analytical conditions”.
Molecule `Cc1c(C=C2C(=O)NC(=S)NC2=O)c2ccccc2n1CCOc1ccc(F)cc1` [NY-2] gave a Cmax in data set [1] (setting [4]) of 2750 ng/mL. In data set [1] (setting [5]), the Cmax worked out at 2750 ± 1110 ng/mL, the half-life was 129 ± 37.2 min and the MRT last came to 64.2 ± 9.6 min. In data set [1] (setting [6]), this molecule gave an AUC(0-inf) of 402 ng·h/mL and an AUC(0-t) of 370 ng·h/mL. Also, in data set [1] (setting [7]), the AUC(0-inf) came to 402 ± 130 ng·h/mL and the area under the curve AUC(0-t) came out at 370 ± 111 ng·h/mL. For the same molecule, in data set [1] (rat, 6 mg/kg iv), the “MRT0-t of NY-2 relative to ZLDI-8 (printed: lower)” value turned out to be 3.5 times, the “plasma clearance (CL) of NY-2 as share of ZLDI-8's” value worked out at 22.2% and the “t1/2 of NY-2 relative to ZLDI-8 (longer)” value is on record as “approximately 3.6 fold”. The “CLZ rate of NY-2 as fraction of that of ZLDI-8” value in data set [1] (rats) is recorded as 1/5. Moreover, the blood-brain barrier penetration entry in data set [2] is given as “do not readily penetrate the blood-brain barrier”. Further, in data set [2] (rat, tail vein 6 mg/kg), the “concentration in the brain” value is recorded as “almost zero”, the “tissue with the highest concentration” value was “highest in the lung” and the “order of concentrations in tissues” value is “lung > liver > spleen > heart > kidney > intestines > brain > muscle”. Moreover, the “stability of plasma samples” value in data set [3] is given as “stable under a variety of analytical conditions”.
